Source: the NIST ThermoML archive (doi:10.1021/je049823k)
± gives the expanded uncertainty stated by the source.

Conditions: Liquid, Transpiration method

With `OCc1ccccc1` [benzenemethanol] as the compound, how does the “vapor or sublimation pressure” value (282.9 K) read?
Its value is 0.00306 ± 0.00022 kPa.

What about the “vapor or sublimation pressure” value (285.9 K) of the same compound?
Its value is 0.00407 ± 0.00029 kPa.

What about the “vapor or sublimation pressure” value (288.9 K) of the same compound?
Its value is 0.00532 ± 0.00038 kPa.

And the “vapor or sublimation pressure” value (292.1 K)?
Its value is 0.00738 ± 0.00052 kPa.

And the “vapor or sublimation pressure” value (295.3 K)?
Its value is 0.00983 ± 0.00069 kPa.

And the “vapor or sublimation pressure” value (298.2 K)?
The value was 0.01251 ± 0.00088 kPa.

And the “vapor or sublimation pressure” value (301.2 K)?
The value was 0.01645 ± 0.0012 kPa.

What about the “vapor or sublimation pressure” value (302.8 K) of the same compound?
The value was 0.01923 ± 0.0014 kPa.

What about the “vapor or sublimation pressure” value (305.8 K) of the same compound?
Its value is 0.02541 ± 0.0018 kPa.

What about the “vapor or sublimation pressure” value (308.8 K) of the same compound?
The value was 0.03192 ± 0.0022 kPa.

What about the “vapor or sublimation pressure” value (311.7 K) of the same compound?
Its value is 0.03999 ± 0.0028 kPa.

And the “vapor or sublimation pressure” value (314.9 K)?
Its value is 0.05172 ± 0.0036 kPa.

What about the “vapor or sublimation pressure” value (318.1 K) of the same compound?
The value was 0.06709 ± 0.0047 kPa.

And the “vapor or sublimation pressure” value (321.1 K)?
Its value is 0.08348 ± 0.0059 kPa.

With `CC(C)(C)OCc1ccccc1` [ether, benzyl tert-butyl] as the compound, how does the “vapor or sublimation pressure” value (277.8 K) read?
Its value is 0.00512 ± 0.00036 kPa.

And the “vapor or sublimation pressure” value (278.1 K)?
Its value is 0.00528 ± 0.00037 kPa.

What about the “vapor or sublimation pressure” value (279.1 K) of the same compound?
The value was 0.00577 ± 0.00041 kPa.

What about the “vapor or sublimation pressure” value (281.3 K) of the same compound?
The value was 0.00698 ± 0.00049 kPa.

What about the “vapor or sublimation pressure” value (282.9 K) of the same compound?
The value was 0.00797 ± 0.00056 kPa.

What about the “vapor or sublimation pressure” value (284.3 K) of the same compound?
The value was 0.00893 ± 0.00063 kPa.

What about the “vapor or sublimation pressure” value (286.2 K) of the same compound?
Its value is 0.01095 ± 0.00077 kPa.

What about the “vapor or sublimation pressure” value (287.3 K) of the same compound?
Its value is 0.01177 ± 0.00082 kPa.

What about the “vapor or sublimation pressure” value (287.8 K) of the same compound?
The value was 0.01209 ± 0.00085 kPa.

What about the “vapor or sublimation pressure” value (288.2 K) of the same compound?
Its value is 0.0131 ± 0.00095 kPa.

What about the “vapor or sublimation pressure” value (290 K) of the same compound?
The value was 0.01485 ± 0.001 kPa.

What about the “vapor or sublimation pressure” value (292.2 K) of the same compound?
The value was 0.0182 ± 0.0013 kPa.

What about the “vapor or sublimation pressure” value (293 K) of the same compound?
Its value is 0.01888 ± 0.0013 kPa.

And the “vapor or sublimation pressure” value (293.2 K)?
Its value is 0.01908 ± 0.0013 kPa.

And the “vapor or sublimation pressure” value (295.2 K)?
The value was 0.02312 ± 0.0016 kPa.

What about the “vapor or sublimation pressure” value (296.2 K) of the same compound?
The value was 0.02445 ± 0.0017 kPa.

What about the “vapor or sublimation pressure” value (297.2 K) of the same compound?
The value was 0.02652 ± 0.0019 kPa.

What about the “vapor or sublimation pressure” value (298 K) of the same compound?
Its value is 0.02843 ± 0.002 kPa.

And the “vapor or sublimation pressure” value (298.2 K)?
Its value is 0.02924 ± 0.0021 kPa.

And the “vapor or sublimation pressure” value (299.2 K)?
The value was 0.03085 ± 0.0022 kPa.

What about the “vapor or sublimation pressure” value (300.3 K) of the same compound?
The value was 0.03419 ± 0.0024 kPa.

And the “vapor or sublimation pressure” value (302.2 K)?
Its value is 0.03875 ± 0.0027 kPa.

What about the “vapor or sublimation pressure” value (303.1 K) of the same compound?
Its value is 0.04177 ± 0.0032 kPa.

And the “vapor or sublimation pressure” value (303.2 K)?
The value was 0.04305 ± 0.0033 kPa.

And the “vapor or sublimation pressure” value (308 K)?
Its value is 0.05754 ± 0.004 kPa.
